Test results as given in patent US8329919B2, “Salt hydrates” (Novartis AG, priority 2002, dated 2012).
Several values for one entry are separate records, joined by “and”; a condition that tells them apart may be missing. Identical values can stand only once.

Test: Thermogravimetry: weight loss, i.e. water loss, as a function of temperature (thermobalance TGS-2)
Assay type: physicochemical
Conditions: heating rate 10 K·min^−1, water-free N2 atmosphere
Procedure: Using thermogravimetry, in a water-free N2 atmosphere, the weight loss, i.e. the water loss for the tetrahydrate of the calcium salt of valsartan A1,Ca as a function of temperature, was measured at a heating rate of 10 K·min^−1. […]
Using thermogravimetry, in a water-free N2 atmosphere, the weight loss, i.e. the water loss for the trihydrate of the calcium salt of valsartan in the polymorphic form B1,Ca as a function of temperature, was measured at a heating rate of 10 K·min^−1.
Using thermogravimetry, in a water-free N2 atmosphere, the weight loss, i.e. the water loss for the trihydrate B2,Ca as a function of temperature, was measured at a heating rate of 10 K·min^−1. The results for the polymorph B2,Ca of the trihydrate of the calcium salt of valsartan are illustrated in table 4.
Using thermogravimetry, in a water-free N2 atmosphere, the weight loss, i.e. the water loss for the trihydrate B3,Ca as a function of temperature, was measured at a heating rate of 10 K·min^−1. The results for the polymorphic form B3,Ca of the trihydrate of the calcium salt of valsartan are illustrated in table 5.
Using thermogravimetry, in a water-free N2 atmosphere, the weight loss, i.e. the water loss for the di-(calcium salt of valsartan) pentahydrate D1,Ca as a function of temperature, was measured at a heating rate of 10 K·min^−1.
The instrument used for the calorimetric data is throughout a DSC Pyris 1 (Differential Scanning calorimeter) obtained from Perkin-Elmer Corp., Norwalk, Conn. USA. The measurements are performed with samples enclosed in a sealed gold specimen container with an internal free volume of ca. 22 microliters, with a sample weight of 2 to 4 mg and with a heating rate of Tr=10K·min^−1. […] The instrument used was a TGS-2 (Perkin-Elmer Corp., Norwalk, Conn. USA) and the measurement was performed in a water free atmosphere. The heating rate selected was 10 K·min^−1. The weight loss is illustrated in table 7.
The heating rate selected was 10K·min^−1.
Using thermogravimetry, in a water-free N2 atmosphere, the weight loss, i.e. the water loss for the tetrahydrate as a function of temperature, was measured at a heating rate of 10 K·min^−1. The results for the calcium salt of valsartan tetrahydrate A0,Ca are listed in the following: […]
Using thermogravimetry, in a water-free N2 atmosphere, the weight loss, i.e. the water loss for the tetrahydrate of the calcium salt of valsartan as a function of temperature, was measured at a heating rate of 10 K·min^−1.

In the case of `CCCCC(=O)N(Cc1ccc(-c2ccccc2-c2nnn[nH]2)cc1)[C@H](C(=O)O)C(C)C` [A0,Mg, (S)—N-(1-carboxy-2-methyl-prop-1-yl)-N-pentanoyl-N-[2′-(1H-tetrazol-5-yl)-biphenyl-4-ylmethyl]-amine], the “weight loss or water loss in %” value (temperature 25 °C) is reported as 0.0%, the “weight loss or water loss in %” value (temperature 50 °C) is reported as 1.2% and the “weight loss or water loss in %” value (temperature 75 °C) is reported as 4.2%. The “weight loss or water loss in %” value (temperature 100 °C) was 11.0%, the “weight loss or water loss in %” value (temperature 125 °C) was 16.7% and the “weight loss or water loss in %” value (temperature 150 °C) was 17.7%. For the same molecule, the “weight loss or water loss in %” value (temperature 175 °C) was 18.3%, the “weight loss or water loss in %” value (temperature 200 °C) was 18.5% and the “weight loss or water loss in %” value (temperature 225 °C) was 18.7%. The “weight loss or water loss in %” value (temperature 250 °C) was 18.9% and the “weight loss or water loss in %” value (temperature 275 °C) was 19.3%.

For `CCCCC(=O)N(Cc1ccc(-c2ccccc2-c2nnn[nH]2)cc1)[C@H](C(=O)O)C(C)C` [A1,Mg, (S)—N-(1-carboxy-2-methyl-prop-1-yl)-N-pentanoyl-N-[2′-(1H-tetrazol-5-yl)-biphenyl-4-ylmethyl]-amine], the “weight loss or water loss in %” value (temperature 25 °C) was 0.1 ± 0.1% and 0%, the “weight loss or water loss in %” value (temperature 50 °C) was 1.0 ± 0.3% and 0.9% and the “weight loss or water loss in %” value (temperature 75 °C) was 6.8 ± 0.5% and 6.8%. For the same molecule, the “weight loss or water loss in %” value (temperature 100 °C) was 14.1 ± 0.5% and 14.3%, the “weight loss or water loss in %” value (temperature 125 °C) was 15.6 ± 0.5% and 15.7% and the “weight loss or water loss in %” value (temperature 150 °C) was 16.4 ± 0.5% and 16.5%. The “weight loss or water loss in %” value (temperature 175 °C) was 16.9 ± 0.5% and 17.0%, the “weight loss or water loss in %” value (temperature 200 °C) was 17.1 ± 0.5% and 17.2% and the “weight loss or water loss in %” value (temperature 225 °C) was 17.3 ± 0.5% and 17.4%. The “weight loss or water loss in %” value (temperature 250 °C) was 17.6 ± 0.5% and 17.8% and the “weight loss or water loss in %” value (temperature 275 °C) was 18.3 ± 0.5% and 18.3%.

For `CCCCC(=O)N(Cc1ccc(-c2ccccc2-c2nnn[nH]2)cc1)[C@H](C(=O)O)C(C)C` [A2,Ca, (S)—N-(1-carboxy-2-methyl-prop-1-yl)-N-pentanoyl-N-[2′-(1H-tetrazol-5-yl)-biphenyl-4-ylmethyl]-amine], the “weight loss or water loss in %” value (temperature 25 °C) was 0 ± 0.3% and 0%, the “weight loss or water loss in %” value (temperature 50 °C) was 0.1 ± 0.3% and 0% and the “weight loss or water loss in %” value (temperature 75 °C) was 0.5 ± 0.5% and 0%. For the same molecule, the “weight loss or water loss in %” value (temperature 100 °C) was 4.9 ± 0.5% and 4.7%, the “weight loss or water loss in %” value (temperature 125 °C) was 11.2 ± 0.5% and 11.1% and the “weight loss or water loss in %” value (temperature 150 °C) was 12.2 ± 0.5% and 11.9%. The “weight loss or water loss in %” value (temperature 175 °C) was 12.6 ± 0.5% and 12.3%, the “weight loss or water loss in %” value (temperature 200 °C) was 12.7 ± 0.5% and 12.5% and the “weight loss or water loss in %” value (temperature 225 °C) was 12.8 ± 0.5% and 12.6%. The “weight loss or water loss in %” value (temperature 250 °C) was 12.8 ± 0.5% and 12.7% and the “weight loss or water loss in %” value (temperature 275 °C) was 13.0 ± 0.5% and 13.3%.

For `CCCCC(=O)N(Cc1ccc(-c2ccccc2-c2nnn[nH]2)cc1)[C@H](C(=O)O)C(C)C` [B1,Mg, (S)—N-(1-carboxy-2-methyl-prop-1-yl)-N-pentanoyl-N-[2′-(1H-tetrazol-5-yl)-biphenyl-4-ylmethyl]-amine], the “weight loss or water loss in %” value (temperature 25 °C) was 0 ± 0.1%, the “weight loss or water loss in %” value (temperature 50 °C) was 2.1 ± 0.3% and the “weight loss or water loss in %” value (temperature 75 °C) was 6.5 ± 0.5%. The “weight loss or water loss in %” value (temperature 100 °C) was 9.5 ± 0.5%, the “weight loss or water loss in %” value (temperature 125 °C) was 11.1 ± 0.5% and the “weight loss or water loss in %” value (temperature 150 °C) was 12.0 ± 0.5%. The “weight loss or water loss in %” value (temperature 175 °C) was 12.5 ± 0.5%, the “weight loss or water loss in %” value (temperature 200 °C) was 12.8 ± 0.5% and the “weight loss or water loss in %” value (temperature 225 °C) was 13.0 ± 0.5%. For the same molecule, the “weight loss or water loss in %” value (temperature 250 °C) was 13.6 ± 0.5% and the “weight loss or water loss in %” value (temperature 275 °C) was 14.3 ± 0.5%.

In the case of `CCCCC(=O)N(Cc1ccc(-c2ccccc2-c2nn[n-]n2)cc1)[C@H](C(=O)[O-])C(C)C.CCCCC(=O)N(Cc1ccc(-c2ccccc2-c2nn[n-]n2)cc1)[C@H](C(=O)[O-])C(C)C.O.O.O.O.O.[Ca+2].[Ca+2]` [D1,Ca, di-{calcium salt of (S)—N-(1-carboxy-2-methyl-prop-1-yl)-N-pentanoyl-N-[2′-(1H-tetrazol-5-yl)-biphenyl-4-ylmethyl]-amine}pentahydrate], the “weight loss or water loss in %” value (temperature 25 °C) is reported as 0.1 ± 0.1% and 0.1%, the “weight loss or water loss in %” value (temperature 50 °C) is reported as 1.3 ± 0.3% and 1.7% and the “weight loss or water loss in %” value (temperature 75 °C) is reported as 2.8 ± 0.5% and 3.3%. For the same molecule, the “weight loss or water loss in %” value (temperature 100 °C) was 5.1 ± 0.5% and 5.1%, the “weight loss or water loss in %” value (temperature 125 °C) was 7.4 ± 0.5% and 7.1% and the “weight loss or water loss in %” value (temperature 150 °C) was 8.0 ± 0.5% and 7.7%. The “weight loss or water loss in %” value (temperature 175 °C) was 8.1 ± 0.5% and 7.9%, the “weight loss or water loss in %” value (temperature 200 °C) was 8.2 ± 0.5% and 8.0% and the “weight loss or water loss in %” value (temperature 225 °C) was 8.2 ± 0.5% and 8.1%. The “weight loss or water loss in %” value (temperature 250 °C) was 8.3 ± 0.5% and 8.3% and the “weight loss or water loss in %” value (temperature 275 °C) was 8.6 ± 0.5% and 8.6%.

With `CCCCC(=O)N(Cc1ccc(-c2ccccc2-c2nnn[nH]2)cc1)[C@H](C(=O)O)C(C)C` [F1,Ca, (S)—N-(1-carboxy-2-methyl-prop-1-yl)-N-pentanoyl-N-[2′-(1H-tetrazol-5-yl)-biphenyl-4-ylmethyl]-amine] the “weight loss or water loss in %” value (temperature 25 °C) was 0.6%, the “weight loss or water loss in %” value (temperature 50 °C) was 3.0% and the “weight loss or water loss in %” value (temperature 75 °C) was 5.6%. For the same molecule, the “weight loss or water loss in %” value (temperature 100 °C) was 7.1%, the “weight loss or water loss in %” value (temperature 125 °C) was 7.9% and the “weight loss or water loss in %” value (temperature 150 °C) was 8.3%. For the same molecule, the “weight loss or water loss in %” value (temperature 175 °C) was 8.6%, the “weight loss or water loss in %” value (temperature 200 °C) was 8.6% and the “weight loss or water loss in %” value (temperature 225 °C) was 8.8%.

For “(S)—N-(1-carboxy-2-methyl-prop-1-yl)-N-pentanoyl-N-[2′-(1H-tetrazol-5-yl)-biphenyl-4-ylmethyl]-amine calcium salt tetrahydrate [A0,Ca]”, the “weight loss or water loss in %” value (temperature 25 °C) was 0%, the “weight loss or water loss in %” value (temperature 50 °C) was 0% and the “weight loss or water loss in %” value (temperature 75 °C) was 0.5%. For the same molecule, the “weight loss or water loss in %” value (temperature 100 °C) was 3.5%, the “weight loss or water loss in %” value (temperature 125 °C) was 10.2% and the “weight loss or water loss in %” value (temperature 150 °C) was 12.4%. The “weight loss or water loss in %” value (temperature 175 °C) was 12.8%, the “weight loss or water loss in %” value (temperature 200 °C) was 12.9% and the “weight loss or water loss in %” value (temperature 225 °C) was 13.0%. The “weight loss or water loss in %” value (temperature 250 °C) was 13.3% and the “weight loss or water loss in %” value (temperature 275 °C) was 13.2%.

For “(S)—N-(1-carboxy-2-methyl-prop-1-yl)-N-pentanoyl-N-[2′-(1H-tetrazol-5-yl)-biphenyl-4-ylmethyl]-amine calcium salt tetrahydrate [A1,Ca]”, the “weight loss or water loss in %” value (temperature 25 °C) was 1.1 ± 0.5% and 1.1%, the “weight loss or water loss in %” value (temperature 50 °C) was 3.3 ± 0.5% and 3.3% and the “weight loss or water loss in %” value (temperature 75 °C) was 5.1 ± 0.5% and 5.1%. The “weight loss or water loss in %” value (temperature 100 °C) was 9.6 ± 1.0% and 9.6%, the “weight loss or water loss in %” value (temperature 125 °C) was 12.2 ± 0.5% and 12.1% and the “weight loss or water loss in %” value (temperature 150 °C) was 12.9 ± 0.5% and 12.9%. The “weight loss or water loss in %” value (temperature 175 °C) was 13.2 ± 0.5% and 13.2%, the “weight loss or water loss in %” value (temperature 200 °C) was 13.3 ± 0.5% and 13.3% and the “weight loss or water loss in %” value (temperature 225 °C) was 13.4 ± 0.5% and 13.4%. For the same molecule, the “weight loss or water loss in %” value (temperature 250 °C) was 13.3 ± 0.5% and 13.3% and the “weight loss or water loss in %” value (temperature 275 °C) was 13.7 ± 0.5% and 13.7%.
